The target of one test is T1, human CB2 (hCB2) (Homo sapiens, UniProt P34972).
T1 construct: (cDNA clone) CNR0200000
The test is described as follows: 35S GTPγS binding assay, hCB2 agonist. Format: biochemical. The method, boiled down:
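Agonist-stimulated [35S]GTPγS (0.1 nM) binding measured by scintillation proximity after 90 min at room temperature. Reaction buffer: 50 mM HEPES pH 7.4, 100 mM NaCl, 5 mM MgCl2, 0.001% saponin plus 20 uM GDP. Membranes (5 μg) came from transfected cells expressing hCB2 cDNA (pcDNA3.1+ vector).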

Another test deals with T2, human CB1 (hCB1) (Homo sapiens, UniProt P21554).
T2 construct: (cDNA clone) CNR01L000
T2 sequence (P21554 whole entry): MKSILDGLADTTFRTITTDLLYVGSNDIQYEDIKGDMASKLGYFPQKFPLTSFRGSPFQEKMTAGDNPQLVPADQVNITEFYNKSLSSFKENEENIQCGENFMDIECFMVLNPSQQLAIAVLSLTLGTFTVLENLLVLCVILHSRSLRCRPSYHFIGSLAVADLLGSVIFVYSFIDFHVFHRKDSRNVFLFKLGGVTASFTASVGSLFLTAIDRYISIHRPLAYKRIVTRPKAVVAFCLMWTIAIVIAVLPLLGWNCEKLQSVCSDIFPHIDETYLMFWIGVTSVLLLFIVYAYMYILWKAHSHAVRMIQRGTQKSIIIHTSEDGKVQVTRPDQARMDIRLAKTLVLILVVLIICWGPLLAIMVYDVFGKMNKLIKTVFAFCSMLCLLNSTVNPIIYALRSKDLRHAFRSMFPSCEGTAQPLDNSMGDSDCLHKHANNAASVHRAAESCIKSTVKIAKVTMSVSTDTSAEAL
Put plainly: 35S GTPγS binding assay, hCB1 agonist. Format: biochemical. Conditions: GTPγS agonist, HEK-293 membranes; read-out: hCB1 EC50 (GTPyS ag). An excerpt: cDNA expression clones for human CB1 (hCB1, Genbank Accession No. AY225225) and human CB2 (hCB2, Genbank Accession No. AY242132) expressed in vector pcDNA3.1+ were purchased from UMR cDNA Resource Center, Rolla, Mo. (Clone ID CNR01L000 for hCB1; CNR0200000 for hCB2).
Stable, HEK-293-derived cell lines that recombinantly express hCBI or hCB2 were established. In brief, the clone hCB1 (CNR IL) or hCB2 (CNR2) was transfected into human embryonic kidney cells (HEK-293) using Lipofectamine 2000 (Gibco, Cat#11668-019) according to the manufacturer's protocol. Transfected clones were isolated by single colony purification and clones were screened for receptor expression using a whole cell, ^3H—CP 55,940 radioligand binding assay. HEK-293 stable cells were maintained in Dulbecco's modified Eagles medium (DMEM) containing 10% fetal bovine serum, 2 mM L-glutamine and 0.5 mg/mL G-418.
Membranes were isolated from transfected cells as follows. Monolayers of cultured cells were washed twice with phosphate-buffered saline (PBS). Cells were scraped into 20 mM HEPES, pH 7.4, 10 mM EDTA containing complete cocktail protease inhibitors (Roche, Catalog #11 697 498 001) and were homogenized by an electric-powered mechanical probe homogenizer (Omni GLH; probe G7-195S) for 40 seconds at 7000 rpm. Homogenates were centrifuged 10 minutes at 1000×g at 4° C. The supernatant was collected and was centrifuged for 1 hour at 40,000×g. The supernatant was then decanted and the resulting pellet was re-suspended in 20 mM HEPES, pH 7.4, 5 mM MgCl2, 1 mM EDTA, 10% sucrose with complete cocktail protease inhibitors. Protein concentration of membrane suspensions were measured by Bradford Protein Assay using bovine serum albumin as the standard (BioRad catalog #500-0006). Protein concentrations of membrane suspensions were adjusted with the final buffer in the range of 5 to 10 mg/mL and were stored at −80° C. until further use.
Functional assays which monitor G-protein coupled receptor or downstream cellular responses can be used to characterize potential CB1 receptor and/or CB2 receptor agonist or antagonist activities. Direct activation (or inhibition of activation) can be monitored using a GTPγS assay (membrane-based assay) or cAMP assay (whole cell-based assay).
^35S GTPγS binding assays were performed by incubating recombinant cell membranes prepared above (5 μg) in the presence of scintillation proximity assay beads (SPA beads, Catalog #RPNQ0252 GE Healthcare, Buckinghamshire, England) in GTPγS binding buffer [50 mM HEPES (pH 7.4), 100 mM NaCl, 5 mM MgCl2, 0.001% saponin (Sigma catalog #S4521)] supplemented with 20 uM GDP (Sigma catalog #G7127) in the presence or absence of test compound. The reaction was carried out in 96-well microplates with 0.1 nM [^35S]GTPγS (specific activity=1250 Ci/mmol; Perkin Elmer catalog #NEG030X250UC) in a final volume of 100 uL. After a 90 min room temperature incubation, the reaction was analyzed using a scintillation counter (Perkin Elmer Microbeta instrument). Binding data were analyzed using GraphPad Prism.

Another test concerns the target T3, human CB2 receptors (Homo sapiens, UniProt P34972).
T3 construct: (cDNA clone) CNR0200000
The test is described as follows: cAMP assay in HEK-293 cells, hCB2 agonist. Format: cell-based. Summed up: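 Stable hCB2 HEK-293 cells in HBSS/10 mM HEPES/0.1% fatty-acid-free BSA incubated 30 min at 37° C with compound; forskolin 90 uM in 3× compound mix.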

Test [1] concerns the target T4, recombinant human cannabinoid receptor CB1 (Homo sapiens, UniProt P21554).
T4 construct: (cDNA clone) CNR01L000
The test is described as follows: Cannabinoid receptor radioligand binding assay, [3H]-CP 55,940 displacement, hCB1. The method, boiled down: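 Displacement of 0.5 nM [3H]-CP 55,940 (1 μM unlabeled CP 55,940 for nonspecific) measured by filtration and scintillation counting. Binding ran 90 min at room temperature in pH 7.5 Tris buffer with 0.1% fatty-acid-free BSA, using recombinant hCB1 HEK-293 membranes at 2-10 μg protein.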

A further test has as its target T5, human CB1 receptors (Homo sapiens, UniProt P21554).
T5 construct: (cDNA clone) CNR01L000
The test is described as follows: cAMP assay in HEK-293 cells, hCB1 agonist. The class given is cell-based. The conditions noted are these: inhibition of forskolin-stimulated cAMP, HEK-293 cells. Summed up: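 Agonist EC50 taken as concentration giving half inhibition of forskolin-driven cAMP, normalized to forskolin maximum, from sigmoidal curves. Whole HEK-293 cells stably expressing hCB1, in HEPES/BSA-containing HBSS, exposed 30 min at 37° C. to compound with forskolin (90 uM in 3× dilution); cAMP read after lysis.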

For test [2], the target named is T6, recombinant human cannabinoid receptor CB2 (Homo sapiens, UniProt P34972).
T6 construct: (cDNA clone) CNR0200000
T6 sequence (P34972 whole entry): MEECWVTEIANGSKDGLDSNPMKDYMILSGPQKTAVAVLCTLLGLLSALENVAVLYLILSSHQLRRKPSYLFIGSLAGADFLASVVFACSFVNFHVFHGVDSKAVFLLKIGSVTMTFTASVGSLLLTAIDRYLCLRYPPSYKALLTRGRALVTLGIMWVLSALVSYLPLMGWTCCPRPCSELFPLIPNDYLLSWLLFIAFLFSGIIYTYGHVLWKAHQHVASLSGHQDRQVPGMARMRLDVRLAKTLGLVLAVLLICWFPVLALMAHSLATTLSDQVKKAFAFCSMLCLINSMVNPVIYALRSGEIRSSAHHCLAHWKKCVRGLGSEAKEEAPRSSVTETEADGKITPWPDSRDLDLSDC
The test is described as follows: Cannabinoid receptor radioligand binding assay, [3H]-CP 55,940 displacement, hCB2. The method, boiled down: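 Receptor source: membrane pellet (40,000×g) from transfected cells, stored in HEPES pH 7.4/MgCl2/EDTA/sucrose buffer.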

Test [3] concerns PBQ-induced writhing in the mouse. The test is described as follows: Phenylbenzoquinone-induced (PBQ) writhing model.
[4] abbreviates: GTPγS agonist, HEK-293 membranes, read-out: hCB2 EC50 (GTPyS ag).
The mark [5] stands for this setting: inhibition of forskolin-stimulated cAMP, HEK-293 cells, read-out: hCB2 EC50 (cAMP ag).
The mark [6] stands for this setting: inhibition of forskolin-stimulated cAMP, HEK-293 cells.

Like-named read-outs stand apart in the source and are kept apart here.

T3 sequence (P34972 whole entry): as above
T1 sequence (P34972 whole entry): as above
T4 sequence (P21554 whole entry): as the sequence (P21554 whole entry) above
T5 sequence (P21554 whole entry): as above

For the compound `COc1ccc(C(=O)c2cc3cc(C)n(CCN4CCC(F)(F)CC4)c3s2)cn1` [Compound 152, (6-(2-(4,4-difluoropiperidin-1-yl)ethyl)-5-methyl-6H-thieno[2,3-b]pyrrol-2-yl)(6-methoxypyridin-3-yl)methanone], the EC50 on human CB2 (hCB2) (setting [4]) is below 100 nM; at human CB1 (hCB1) it was 1000 to 10000 nM; on human CB2 receptors (setting [5]), below 100 nM. In test [1], the IC50 was below 100 nM.

Turning to `COc1ccc(C(=O)c2cc3cc(C)n(CCCNS(=O)(=O)C(F)(F)F)c3s2)cc1` [Compound 154, 1,1,1-trifluoro-N-(3-(2-(4-methoxybenzoyl)-5-methyl-6H-thieno[2,3-b]pyrrol-6-yl)propyl)methanesulfonamide], the 50% effective concentration (EC50) on human CB2 (hCB2) is 1000 to 10000 nM; at human CB1 (hCB1), above 10000 nM; on human CB2 receptors it was 100 to 1000 nM. Also, the half-inhibitory concentration (IC50) in test [1] came out at 158 nM.

On to `COc1ccc(C(=O)c2cc3cc(C)n(CC(=O)O)c3s2)cn1` [Compound 166, 2-(2-(6-methoxynicotinoyl)-5-methyl-6H-thieno[2,3-b]pyrrol-6-yl)acetic acid], for which the EC50 at human CB2 (hCB2) (setting [4]) and on human CB1 (hCB1) was above 10000 nM throughout. For the same compound, on human CB2 receptors (setting [6]), the “hCB2 EC50 (cAMP ag, nM)” value is listed as “NS (NS means “Not Significant,” which means less than 30% agonist activity when compared to the positive control.)”. For the same compound, the “hCB1 EC50 (cAMP ag, nM)” value at human CB1 receptors is recorded as “NS (NS means “Not Significant,” which means less than 30% agonist activity when compared to the positive control.)”.

`COc1ccc(C(=O)c2cc3cc(C)n(CCN4CC5CC4CO5)c3s2)cn1` (stereo not drawn) [Compound 169, (6-(2-(2-oxa-5-azabicyclo[2.2.1]heptan-5-yl)ethyl)-5-methyl-6H-thieno[2,3-b]pyrrol-2-yl)(6-methoxypyridin-3-yl)methanone]: the values for the EC50 at human CB2 (hCB2) (setting [4]) and at human CB1 (hCB1) were 1000 to 10000 nM and above 10000 nM, respectively. Further, the “hCB1 EC50 (cAMP ag, nM)” value on human CB1 receptors is recorded as “NS (NS means “Not Significant,” which means less than 30% agonist activity when compared to the positive control.)”. Also, the IC50 in test [1] lay in the range of 100 to 1000 nM.

On to `COc1ccc(C(=O)c2cc3cc(C)n(CC4CCNCC4)c3s2)cn1` [Compound 172, (6-methoxypyridin-3-yl)(5-methyl-6-(piperidin-4-ylmethyl)-6H-thieno[2,3-b]pyrrol-2-yl)methanone], for which the 50% effective concentration (EC50) on human CB2 (hCB2) (setting [4]) and at human CB1 (hCB1) was above 10000 nM each time. For the same compound, the “hCB2 EC50 (cAMP ag, nM)” value on human CB2 receptors (setting [6]) is recorded as “NS (NS means “Not Significant,” which means less than 30% agonist activity when compared to the positive control.)”. In addition, the “hCB1 EC50 (cAMP ag, nM)” value at human CB1 receptors is recorded as “NS (NS means “Not Significant,” which means less than 30% agonist activity when compared to the positive control.)”.

In the case of `COc1ccc(C(=O)c2cc3cc(C)n(CC4CCCCO4)c3s2)cn1` (stereo not drawn) [Compound 173, (6-methoxypyridin-3-yl)(5-methyl-6-((tetrahydro-2H-pyran-2-yl)methyl)-6H-thieno[2,3-b]pyrrol-2-yl)methanone], the EC50 is 100 to 1000 nM at human CB2 (hCB2), 1000 to 10000 nM on human CB1 (hCB1) and below 100 nM on human CB2 receptors. In addition, the IC50 in test [1] is below 100 nM.

Turning to `COc1ccc(C(=O)c2cc3cc(C)n(CC4CCSCC4)c3s2)cn1` [Compound 175, (6-methoxypyridin-3-yl)(5-methyl-6-((tetrahydro-2H-thiopyran-4-yl)methyl)-6H-thieno[2,3-b]pyrrol-2-yl)methanone], the 50% effective concentration (EC50) is below 100 nM at human CB2 (hCB2), 100 to 1000 nM on human CB1 (hCB1) and below 100 nM on human CB2 receptors. Further, the results for the 50% inhibitory concentration (IC50) in test [2] and in test [1] were 1000 to 10000 nM and below 100 nM, respectively.

In the case of `COc1ccc(C(=O)c2cc3cc(C)n(CC(=O)O)c3s2)c(F)c1` [Compound 176, 2-(2-(2-fluoro-4-methoxybenzoyl)-5-methyl-6H-thieno[2,3-b]pyrrol-6-yl)acetic acid], the EC50 at human CB2 (hCB2) (setting [4]) was above 10000 nM; on human CB1 (hCB1) it was above 10000 nM; at human CB2 receptors (setting [5]) it was below 100 nM. On human CB1 receptors, the “hCB1 EC50 (cAMP ag, nM)” value is reported as “NS (NS means “Not Significant,” which means less than 30% agonist activity when compared to the positive control.)”.

For `COc1ccc(C(=O)c2cc3cc(C)n(CC4COCCO4)c3s2)cn1` (stereo not drawn) [Compound 177, (6((1,4-dioxan-2-yl)methyl)-5-methyl-6H-thieno[2,3-b]pyrrol-2-yl)(6-methoxypyridin-3-yl)methanone], the EC50 on human CB2 (hCB2) was 1000 to 10000 nM; at human CB1 (hCB1) it was above 10000 nM; on human CB2 receptors, 1000 to 10000 nM. The “hCB1 EC50 (cAMP ag, nM)” value on human CB1 receptors is listed as “NS (NS means “Not Significant,” which means less than 30% agonist activity when compared to the positive control.)”.

For `COc1ccc(C(=O)c2cc3cc(C)n(CCN4CCCC4COCc4ccccc4)c3s2)cn1` (stereo not drawn) [Compound 178, (6-(2-(2-((benzyloxy)methyl)pyrrolidin-1-yl)ethyl)-5-methyl-6H-thieno[2,3-b]pyrrol-2-yl)(6-methoxypyridin-3-yl)methanone], the EC50 on human CB2 (hCB2) and on human CB1 (hCB1) was above 10000 nM throughout. Besides, the “hCB2 EC50 (cAMP ag, nM)” value at human CB2 receptors (setting [6]) was “NS (NS means “Not Significant,” which means less than 30% agonist activity when compared to the positive control.)”. Moreover, the “hCB1 EC50 (cAMP ag, nM)” value at human CB1 receptors is listed as “NS (NS means “Not Significant,” which means less than 30% agonist activity when compared to the positive control.)”.

`COc1cc(F)c(C(=O)c2cc3cc(C)n(CC4CCOCC4)c3s2)c(F)c1` [Compound 180, (2,6-difluoro-4-methoxyphenyl)(5-methyl-6-((tetrahydro-2H-pyran-4-yl)methyl)-6H-thieno[2,3-b]pyrrol-2-yl)methanone]: the values for the 50% effective concentration (EC50) on human CB2 (hCB2), at human CB1 (hCB1) and on human CB2 receptors were below 100 nM, 1000 to 10000 nM and below 100 nM, respectively. Also, the IC50 in test [1] is 100 to 1000 nM.

Turning to `Cc1cc2cc(C(=O)c3cccc(Cl)c3Cl)sc2n1CCN1CCOCC1` [Compound I-1], the “Number of Writhes” value is listed as 0.4 ± 0.31 in test [3] (Dose 30, IP) and 7.5 ± 1.91 in test [3] (Dose 30, PO).

As for `Cc1cc2cc(C(=O)c3ccc(Cl)cc3)sc2n1CCN1CCOCC1` [Compound I-6], the “Number of Writhes” value in test [3] (Dose 30, PO) was 3.7 ± 0.7.

Turning to `Cc1cc2cc(C(=O)c3ccc(Cl)cc3Cl)sc2n1CCN1CCOCC1` [Compound I-10], in test [3] (Dose 30, PO), the “Number of Writhes” value amounted to 3.7 ± 0.7.

Consider `Cc1cc2cc(C(=O)c3ccccn3)sc2n1CCN1CCOCC1` [Compound I-16], for which the “Number of Writhes” value in test [3] (Dose 30, IP) is reported as 10.0 ± 2.76.

Regarding `CCS(=O)(=O)n1c(C)cc2cc(C(=O)c3cccc(Cl)c3Cl)sc21` [Compound I-25], in test [3] (Dose 30, IP), the “Number of Writhes” value worked out at 5.9 ± 2.46.

For the origin of these results see patent publication US20130029970A1 (priority 2009, published 2013).
